Experimental data reported in patent US20140135396A1, “Treatment of Acetaminophen-Induced Liver Damage by the Administration of Modulators of Nitric Oxide” (BETH ISRAEL DEACONESS MEDICAL CENTER, INC., priority 2011, published 2014).
“Also recorded” adds a separate entry of the source.

Key:
[1] = system: zebrafish embryos; experiment: Chemical genetic screen for effects on liver development in zebrafish embryos; type: in vivo; details: lfabp:GFP fluorescence and lfabp in situ hybridization at 72 hpf
Experimental: The liver arises from anterior endodermal progenitor cells. Liver development can be divided into three stages, specification (18-24 hours post fertilization, hpf), budding/differentiation (24-72 hpf), and hepatic outgrowth (72-96 hpf). The various stages of liver development can be observed in the embryo by in situ hybridization for hhex (endodermal progenitors), foxA3 (differentiated endoderm) and liver fatty acid binding protein (lfabp, marker of hepatocytes).
In an effort to identify novel regulators of liver formation and homeostasis, a library of 2880 biologically active compounds (obtained from the ICCB at Harvard Medical School) was previously screened for global effects on liver development in zebrafish. Hepatogenesis was assessed in vivo using fluorescent reporter fish where the hepatocyte-specific lfabp promoter drives GFP expression. All embryos were imaged with fluorescence microscopy at 72 hpf, then fixed and subjected to in situ hybridization for lfabp to confirm the in vivo findings. Of the chemical treatments, 191 compounds (6.6%) increased, and 344 (11%) decreased liver formation.

[2] = system: cloche embryos; experiment: Liver size in cloche mutant embryos lacking vasculature; type: in vivo, zebrafish; details: for liver size in cloche embryos: summary statement
Description: NO signaling can occur via 2 distinct mechanisms namely, cGMP-dependent vasodilation and S-nitrosylation pathways. In order to clarify the importance of the well-known vascular effects of NO, we examined the effect of chemical modulators of NO signaling in cloche mutants that have no endothelial cells and therefore lack any vasculature.

[3] = system: zebrafish embryos; experiment: Hepatic progenitor proliferation in zebrafish embryos (BrdU incorporation, pH3 staining); type: in vivo; details: for BrdU incorporation (BrdU positive cells): developing hepatic bud; for staining for the mitotic marker pH3: treated embryos
[4] = system: lfabp:GFP embryos; experiment: Flow cytometric analysis of GFP+ hepatocytes in lfabp:GFP embryos; details: GFP+ cells, compared to control
Description: S-nitrosoglutathione reductase (GSNOR) is the major enzyme responsible for metabolizing S-nitrosothiols and is therefore a key negative regulator of S-nitrosylation pathways. We reasoned that by inhibiting GSNOR function we could stimulate S-nitrosothiol signaling and modulate liver formation.

[5] = system: zebrafish embryos; experiment: Hepatic bud size in zebrafish embryos (hhex, foxA3, sid4 expression); type: in vivo
Experimental: (§1) To further characterize the role of NO signaling on liver formation, we studied the temporal requirements for NO signaling. Embryos were exposed to Deta (10 μM), L-Arg (10 μM) or L-NAME (10 μM) from 24-48 or 48-72 hpf at which point liver size was assessed. […] Exposure of embryos to L-Arg (10 μM) caused a subtle yet significant increase in the hepatic bud size at 36 hpf (region of hhex expression) in 26% of embryos, whereas L-NAME diminished hepatic bud size in 33% of embryos.
The expression pattern of an alternate hepatic progenitor marker prox1 corroborated that chemical modulators of NO signaling alter the size of the developing hepatic bud. […] These findings were verified by qPCR for hhex and foxA3.

[6] = system: zebrafish embryos; experiment: Liver size in zebrafish embryos (lfabp in situ hybridization, lfabp:GFP); type: in vivo; details: for liver size (in situ hybridization for lfabp and transferrin): 10 μM, exposure 24-72 hpf; for liver size: other NO donors at optimal doses, alternative NOS inhibitor, inactive enantiomer, dose series
Experimental: In order to identify regulators of liver formation a chemical genetic screen was conducted. Several of the chemicals identified by the screen were known to impact on NO signaling. Based on these initial observations, well-established modulators of NO signaling were secondarily screened for effects on liver formation. […] The contrasting effects of L-Arg and L-NAME on liver formation were confirmed by in vivo fluorescent microscopy of lfabp:GFP transgenic zebrafish. To quantify the phenotypic changes caused by NO signaling, the liver size (region of lfabp expression) of treated embryos were scored as large, medium or small. […]
as §1, with “embryos. […]” for “embryos.”

[7] = system: zebrafish embryos; experiment: Survival of zebrafish embryos exposed to a lethal dose of APAP; type: in vivo; details: for survival: GSNORi 1 μM, NAC 10 μM; for survival compared to APAP alone: co-exposure 5 μM
Experimental: Having found a hepatoprotective effect of GSNORi in embryos exposed to a sublethal dose of APAP, we next examined whether GSNORi was able to enhance survival in embryos exposed to a lethal dose of APAP (10 mM).

[8] = system: adult zebrafish; experiment: APAP-induced liver injury in adult zebrafish; type: in vivo; details: for hepatic glutathione (GSH) / liver histology / overall survival compared to APAP alone: APAP 10 mM; for hepatic glutathione (GSH) / liver histology: GSNORi 1 μM and/or NAC 10 μM; for overall survival compared to APAP alone: adults, Deta 5 μM, GSNO 5 μM
Experimental: Having shown that GSNORi was hepatoprotective in APAP exposed larvae, we wanted to examine whether GSNORi remained effective in adult zebrafish. To visualise the hepatoprotective properties of GSNORi in vivo, adult casper lfabp:GFP transgenic fish were exposed to APAP (10 mM) in the presence or absence of GSNORi (1 μM) for 24 hr and examined 72 hpe by fluorescence microscopy. […] To gain a greater understanding of the hepatoprotective potential of GSNORi, survival studies were conducted in which adults were exposed to APAP (10 mM) in the presence or absence of GSNORi (1 μM) for 24 hr, followed by a 2-day recovery period in fresh water. […] The differences in survival were reflected in circulating ALT levels, which are used clinically to assess liver toxicity; peaking at 24 hpe with 196 U/L in APAP (10 mM) exposed fish and 55 U/L for fish exposed to APAP with GSNORi (1 μM).
Given that treatments for APAP-induced liver injury are provided after a considerable delay in the clinical setting, we wanted to determine whether GSNORi would remain hepatoprotective when treatment was delayed. In addition, we wanted to ascertain whether GSNORi could synergize with the clinical antidote NAC and extend the therapeutic window.

[9] = system: WT mice; experiment: APAP-induced liver injury in WT mice treated with GSNORi and/or NAC; type: in vivo; details: APAP 300 mg/kg, treatment 2 hrs later, GSNORi 5 mg/kg, NAC 300 mg/kg
Experimental: To investigate this possibility, WT mice were injected with a sub-lethal dose of APAP (300 mg/kg) followed 2 hrs later by treatment with GSNORi (5 mg/kg) and/or NAC (300 mg/kg). Mice were sacrificed at 6 or 24 hr.

[10] = system: lfabp:GFP embryos; experiment: APAP-induced liver injury in zebrafish larvae, sub-lethal dose (liver size, BrdU); type: in vivo; details: for liver size: APAP 5 mM 48-60 hpf, treatment in recovery phase 60-96 hpf, L-NAME 10 μM, NAC 10 μM, GSNORi 1 μM; for liver size and survival after APAP exposure: summary, embryos and adults, co-exposure; for liver size / hepatoprotection: co-exposure model: APAP 5 mM concurrently with treatment 48-96 hpf, Deta 5 μM
Experimental: In order to examine the possible hepatoprotective effect of GSNORi in the context of acetaminophen (APAP) induced liver injury. Transgenic lfabp:GFP embryos were exposed to a sub-lethal dose of APAP (5 mM) from 48 to 60 hpf followed by treatment during the recovery phase (60-96 hpf) with L-NAME, GSNORi and/or NAC. […] In order to further investigate the proliferative effect of treatments following APAP induced liver injury, we examined BrdU incorporation during the recovery phase.

[11] = system: zebrafish embryos; experiment: Effect on organs other than the liver in zebrafish embryos (in situ hybridization); type: in vivo; details: 10 μM, 18 hpf until 72 hpf
Experimental: These findings were corroborated by qPCR for lfabp.
In order to examine the effect that NO signaling had on other endodermal organs including the pancreas and gut, embryos were exposed to Deta (10 μM) or L-NAME (10 μM) from 18 hpf until 72 hpf. Endodermal derived tissue, the exocrine pancreas and gut were stained by in situ hybridization for foxa3, trypsin and ifabp, respectively.

[12] = system: NO production; experiment: NO production in vivo with fluorescent probe Cu(2)(FL2E); parameters: species or system zebrafish; details: cell-trappable fluorescent probe Cu(2)(FL2E)
[13] = system: Zebrafish; experiment: Liver regeneration after 1/3 partial hepatectomy in zebrafish; type: in vivo; details: 10 μM
Description: In order to determine whether the hepatoprotective and pro-regenerative effect of GSNOR inhibition was limited to APAP-induced liver injury, we determined the impact of exposure to GSNORi after ⅓ partial hepatectomy.

[14] = APAP 10 mM 48-96 hpf, co-exposure
[15] = APAP 10 mM for 18 hr followed by delayed treatment, GSNORi 1 μM, NAC 10 μM

## N=C(N)NCCC[C@H](N)C(=O)O [L-Arg, L-Arginine]
[1]
  liver size: increase in liver size
[2]; cloche mutants, L-Arg 10 μM
  embryos with increased liver size: 37%
[3]
  BrdU incorporation (BrdU positive cells): increase in BrdU positive cells
  staining for the mitotic marker pH3: increased hepatic proliferation
[4]
  hepatocytes per embryo: increase in hepatocytes per embryo
[5]; L-Arg 10 μM, 36 hpf
  embryos with increase in hepatic bud size (region of hhex expression): 26%
[5]; L-Arg, 48 hpf
  embryos with increased hepatic bud size (foxA3 expression): 51%
[6]
  liver size (in situ hybridization for lfabp and transferrin): dramatic increase in liver size
[6]; L-Arg 10 μM, 24-72 hpf, liver size scored large, medium or small
  embryos with a large liver: approximately 51%

## CC(=O)N[C@@H](CS)C(=O)O [NAC, N-acetylcysteine]
[7]; [14]
  survival: 32%
[7]; APAP 10 mM, treatment given after a 12 hr delay
  survival: 15%
[8]; [15]
  survival by 72 hpe: 80%
[8]
  hepatic glutathione (GSH): modulated
  liver histology: alleviated
[8]; following APAP injury
  cell proliferation (PCNA immunohistochemistry): modulated liver regeneration
[9]
  circulating ALT, % of the level of APAP alone: 43%
[9]; 6 and 24 hr
  histological evaluation of centrilobular necrosis: effective in preventing liver necrosis

## N[C@@H](CCC(=O)N[C@@H](CSN=O)C(=O)NCC(=O)O)C(=O)O [GSNO, S-nitrosoglutathione]
[7]; APAP 10 mM
  survival compared to APAP alone: increased survival
[2]; cloche mutants, GSNO 5 μM
  embryos with increased liver size: 46%
[2]
  liver size in cloche embryos: able to modulate liver size
[8]
  overall survival compared to APAP alone: enhanced overall survival
[6]; GSNO 5 μM
  embryos with enhanced liver size: 40%

## CC(=O)Nc1ccc(O)cc1 [APAP, N-acetyl-p-aminophenol]
[7]; [14]
  survival: 4%
[10]
  liver size: dramatic decrease in liver size
  liver size and survival after APAP exposure: decrease in liver size and death
[8]; 24 hpe, APAP 10 mM ± GSNORi 1 μM
  circulating ALT: 196 U/L
[8]; [15]
  survival by 72 hpe: 57%
[8]; APAP 10 mM ± GSNORi 1 μM for 24 hr, 2-day recovery in fresh water
  survival by 72 hpe: 39%
[8]
  hepatic glutathione (GSH): dramatic reduction in hepatic glutathione (GSH)
  liver histology: hepatocyte necrosis and hemorrhaging
[8]; adult casper lfabp:GFP fish, APAP 10 mM ± GSNORi 1 μM for 24 hr, examined 72 hpe
  GFP fluorescence (fluorescence microscopy): reduction in GFP fluorescence

## NCCN(CCN)/[N+]([O-])=N/O [Deta, Diethylenetriamine-NONOate]
[11]
  size of other endodermal organs (foxa3, trypsin, ifabp): did not observably affect the size of other endodermal organs
[7]; APAP 10 mM
  survival compared to APAP alone: increased survival
[1]
  liver size: increase in liver size
[10]
  liver size / hepatoprotection: protected the liver
[8]
  overall survival compared to APAP alone: enhanced overall survival
[5]; 10 μM
  region of hhex and foxA3 expression in the developing hepatic bud: increasing the region of hhex and foxA3 expression
[6]
  liver size: increase liver size

## COC(=O)[C@@H](N)CCCNC(=N)N[N+](=O)[O-] [L-NAME, L-N^G-Nitroarginine methyl ester]
[11]
  size of other endodermal organs (foxa3, trypsin, ifabp): did not observably affect the size of other endodermal organs
[1]
  liver size: smaller livers; also recorded: small liver
[2]; cloche mutants, L-NAME 10 μM
  embryos with a small liver: 40%
[2]
  liver size in cloche embryos: able to modulate liver size
[10]
  liver size: exacerbated
  liver size / hepatoprotection: exacerbated injury
  liver size and survival after APAP exposure: further decrease in liver size and more extensive loss in survival
[8]
  overall survival compared to APAP alone: exacerbated the loss in survival
[3]
  BrdU incorporation (BrdU positive cells): reduced the number of BrdU positive cells
  staining for the mitotic marker pH3: inhibited cell cycle progression
[12]
  NO in the developing endoderm: inhibited
[4]
  hepatocytes per embryo: decrease
[13]
  regenerative activity: complete cessation of regenerative activity
[5]; L-NAME, 36 hpf
  embryos with diminished hepatic bud size (hhex): 33%
[5]; L-NAME, 48 hpf
  embryos with restricted hepatic bud size (foxA3 expression): 60%
[6]
  liver size (in situ hybridization for lfabp and transferrin): decrease in liver size
[6]; L-NAME 10 μM, 24-72 hpf
  embryos with diminished liver size: 62%

## N=C(N)NCCC[C@@H](N)C(=O)O [D-Arg, D-Arginine]
[6]
  liver size: no effect on liver size

## CC(=O)NC(C(=O)O)C(C)(C)SN=O (racemic) [SNAP, S-Nitroso-N-Acetyl-D,L-Penicillamine]
[6]
  liver size: increase liver size

## NG-amino-L-Arginine [L-NMMA]
[6]
  liver size: decrease liver size in a dose-dependent manner
